Results on 87 compounds are retold here after a melting point compilation (Tetko et al.; mined from patent text by program, amines drawn as free bases though some values may be those of a salt).

Structures are written as SMILES. Residues, ends and D or L forms follow the SMILES beside them.

Take `CC1Cc2cc(S(=O)(=O)N3CCN(c4cccc(Cl)c4)CC3)ccc2N1C(=O)CCC(=O)O` (configuration not stated): the melting point turned out to be 210 °C.

`O=C(c1cccnc1)C(O)c1ccccc1Br` (configuration not stated): the melting point was 105 to 108 °C.

In the case of `COc1ccc(CCOc2cccc(-c3cccc(C(=O)O)c3)n2)cc1OC`, the melting point fell in the range of 147 to 148 °C.

Turning to `COc1nc(-c2c(F)cccc2F)nn1-c1ccccc1C(F)(F)F`, the melting point lay within 118 to 119 °C.

`Cn1c(COc2ccc(CC3SC(=O)NC3=O)cc2)nc2ccc(OCCc3ccc(C(C)(C)C)c(NC(=O)Nc4ccc(C(F)(F)F)cc4)c3)cc21` (configuration not stated) showed a melting point of 165 to 167 °C.

Take `NC(=O)c1cc2c(Oc3ccc(Cl)cc3)c[nH]c(=O)c2s1`: the melting point is above 250 °C.

With `CCOC(=O)C(=NOC)c1csc2cc(F)ccc12`, the melting point fell in the range of 84.5 to 86 °C.

For `CCCCCCCCCCCCCCCCCCOc1ccc(C(=O)O)c(OCCCOc2ccc(O)cc2)c1`, the melting point is 97 to 100 °C.

In turn, `CC1(C)CCC(=O)N(C2c3cc4nonc4cc3OC(C)(C)C2O)C1` (configuration not stated) returned a melting point of 136 to 137 °C.

`COc1cc(COc2nn(-c3ccccc3)cc2/C=C/C(N)=O)ccc1OCc1nc(-c2ccco2)oc1C` yielded a melting point of 187 to 188 °C.

With `CC(C)(C)OC(=O)N1CCN(CC(O)Cn2c3ccc(Br)cc3c3cc(Br)ccc32)CC1` (configuration not stated), the melting point was in the range of 90 to 95 °C.

Turning to `COc1ccc(-c2c(NC(=O)Nc3ccc(F)cc3F)c(=O)n(C)c3ccc(C)cc23)cc1OC`, the melting point was 231 to 233 °C.

`COC(=O)CCc1cc(C(CC(C)C)NC(=O)Cc2ccc(NC(=O)Nc3ccccc3C)cc2)no1` (configuration not stated): the melting point is 153 to 154 °C.

`O=C(c1ccoc1)c1cccc(-c2c(O)c3ccc(Cl)cc3[nH]c2=O)c1` showed a melting point of 284 to 286 °C.

`Cc1c(C)c2c(c(C)c1O)CC[C@@](C)(CCCl)O2`: the melting point came to 111 °C.

The compound `COC1CN(C(=O)c2cc(-c3cccc(Cl)c3)c(=O)[nH]c2-c2c(Cl)cccc2C#N)C1` registered a melting point of 239 to 243 °C.

The compound `Cc1ccnc2c1nc(-c1cccnc1N)n2-c1ccc(CC(=O)Nc2ccccc2)cc1` yielded a melting point of 236 to 238 °C.

`CC(=O)Nc1nc(CCc2ccc(NC(=O)OC(C)(C)C)cc2)c(C(=O)NCc2ccc(S(C)(=O)=O)cc2)s1` registered a melting point of 192 to 193 °C.

For the compound `CCCCOc1ccccc1Nc1ncc(C(=O)OCC)c(=O)[nH]1`, the melting point lay in the range of 209 to 211 °C.

Take `COC(=O)c1ccc(OC)c(NC(=NCl)c2ccc(Cl)cc2Cl)c1`: the melting point came out at 120 °C.

Take `COc1cc2nc(Cl)n3cnnc3c2cc1OC`: the melting point fell in the range of 269 to 271 °C.

Compound `CNC(=O)[C@H](O)C(C)(C)C` returned a melting point of 60 to 62 °C.

For `COc1ccccc1N1CCN(CCN(C(=O)C2CCCCC2)c2ccccc2N)CC1`, the melting point lay in the range of 138 to 140 °C.

Compound `CCSCc1cc(O)nc(N(C)C)n1` came in with a melting point of 119 to 121 °C.

In turn, `COCCNC(=O)c1cccc(-c2cccc3cc(Cc4cccc(S(C)(=O)=O)c4)sc23)c1` came in with a melting point of 131 to 132 °C.

`C=C(C)C(=O)N1CCC[C@H]1C(=O)O` showed a melting point of 102 to 104 °C.

`COc1ccc(P2(=O)c3ccccc3CN2c2ccccc2)c(OC)c1` (configuration not stated): the melting point was in the range of 173 to 175 °C.

Take `CNC(=O)N1CC(Oc2cccc(Br)c2)C1`: the melting point was 134 to 135 °C.

The compound `COc1c(C2CCN(CCCCNC(=O)c3ccc(-c4ccc(NS(=O)(=O)CC(F)(F)F)cc4)cc3)CC2)ccc2c1CCCC2` yielded a melting point of 182 to 184 °C.

`Oc1c(Br)cnc2ccccc12` showed a melting point of 286 to 287 °C.

`Cc1ccc(S(=O)(=O)C(=[N+]=[N-])S(C)(=O)=O)cc1` yielded a melting point of 108 to 109 °C.

Take `CCOC(=O)c1nccn1CCCCc1ccc(OCc2coc(/C=C/c3ccccc3)n2)cc1`: the melting point was 96 to 97 °C.

`CN(C)C(=O)c1cc(-c2nccs2)[nH]c1C(CC1CCOCC1)c1ccc(S(=O)(=O)C2CC2)cc1` (configuration not stated) returned a melting point of 180 to 182 °C.

Turning to `CC12CCC3C(CCC4CC(O)CCC43C)C1CCC2=S` (configuration not stated), the melting point lay in the range of 172 to 173 °C.

Regarding `CNC(=O)N1CCSC1c1ccc(O)cc1` (configuration not stated), the melting point was 218 to 220 °C.

`Cc1c(CCl)oc2ccc([N+](=O)[O-])cc12` displayed a melting point of 141 to 142 °C.

For the compound `O=C(OCc1ccccc1)N1CCN(c2ccc(S(=O)(=O)N3CCCC3=O)cc2)CC1`, the melting point fell in the range of 153 to 155 °C.

`CCOC(=O)C1=C(N)NC2=C(C(=O)CCC2)C1c1cccc(Br)c1` (configuration not stated): the melting point came out at 255 °C.

Turning to `Cc1c(C(C)(C)C(=O)O)nc2ccc(NCCCN3CCC(OC(c4ccccc4)c4ccccc4)CC3)nn12`, the melting point was in the range of 219 to 220 °C.

Take `CCCCN(C(=O)C1CCCCC1)c1nn(C)cc1Cl`: the melting point was 110 to 112 °C.

As to `FC(F)(F)c1ccc(OCCc2c[nH]cn2)cc1`, the melting point lay within 105 to 109 °C.

As for `CC(Cl)(Cl)C1(O)NC(=O)C(=O)N1`, the melting point was found to be 220 °C.

With `Cc1nc2cc(Oc3ncccc3C(=O)NCc3ccc(C(C)(C)O)cc3)ccc2s1`, the melting point fell in the range of 124 to 126 °C.

For `O=c1[nH]c2cc(Cl)c(Cl)c(Cl)c2o1`, the melting point fell in the range of 253 to 254 °C.

As to `CSCCN1C(=O)c2ccccc2Oc2nc(Cl)ccc21`, the melting point was 126 to 128 °C.

For the compound `Clc1nc(-n2cccn2)ncc1Cc1ccccc1`, the melting point was in the range of 149 to 151 °C.

For the compound `CSc1nc2nsc(N)c2s1`, the melting point fell in the range of 160 to 166 °C.

The compound `O=C(c1ccccc1)C(O)CCl` (configuration not stated) gave a melting point of 42 to 45 °C.

For `N#CN=C(Nc1cccnc1)NC(NC(=O)c1ccc(Cl)cc1)C(F)(F)F` (configuration not stated), the melting point lay within 136 to 138 °C.

Regarding `CCOC(=O)c1c(S(=O)(=O)c2ccc(C)cc2)nc(-c2ccccc2)c([N+](=O)[O-])c1C(=O)OCC`, the melting point lay within 115 to 117 °C.

`C#Cc1cc(NC(=O)c2cnn(-c3ccc(Cl)cc3)c2C)ccc1N1CCC(N2CCOCC2)CC1` returned a melting point of 203 to 205 °C.

Consider `CN1c2ccccc2C(c2ccccc2Cl)=Nc2cccnc21`, for which the melting point was 132 to 133 °C.

For the compound `COc1cc(O)c(C(=O)C=Cc2ccc(OCc3ccccc3)c(OC)c2)c(OC)c1`, the melting point turned out to be 131 °C.

`COc1cc(OC)cc(Oc2nc(N)n3nc(-c4ccco4)nc3n2)c1` registered a melting point of 248 to 250 °C.

As for `Cc1oc(-c2ccccc2)nc1CCOc1ccc(CCC(=O)O)cc1`, the melting point lay within 142 to 144 °C.

`O=S(=O)(c1ccc(Cl)cc1)c1ccc(-c2ccc(O)cc2)cc1` yielded a melting point of 268 to 270 °C.

The compound `Cc1c(F)c(N2CCNCC2)cc2c1c(=O)c(C(=O)O)cn2-c1ccc(F)cc1F` displayed a melting point of 198 to 200 °C.

The compound `CCSCCCCCCCCCCC(=O)O` yielded a melting point of 58 to 61 °C.

In the case of `CCCCC(=O)c1c(-c2ccc3c(Br)c(OCC(=O)O)ccc3c2)oc2ccc(Cl)cc12`, the melting point was in the range of 130 to 132 °C.

In turn, `CN(C)CCCNC(=O)c1ccc(-c2nnc(CSCCCOc3ccccc3)o2)cc1` displayed a melting point of 77 to 80 °C.

In the case of `COc1cc(C)c(C(C)O)cc1NC(=O)N1CCN(c2cc(C)cc(C)c2)CC1` (configuration not stated), the melting point lay within 140 to 142 °C.

Turning to `COc1cccc(C(CNC(=O)Cc2c(Cl)cncc2Cl)c2ccccc2)c1` (configuration not stated), the melting point lay in the range of 142 to 143 °C.

The compound `COC(=O)C1=C(C)NC(C)=C(C(=O)OC)C1c1cc([N+](=O)[O-])ccc1OC/C=C/CCl` gave a melting point of 206 to 207 °C.

Compound `Cn1nc(-c2ncc(Cl)cc2F)cc1OCC(F)(F)F` gave a melting point of 72 to 73 °C.

As for `Cn1nnc2cc(C(O)c3ccccc3)ccc21` (configuration not stated), the melting point came out at 129 °C.

`COC(=O)C(Cc1ccccc1)NC(=O)C(CC(=O)O)NC(=O)C(N)CO` (stereo not drawn) (H-Ser-Asp-Phe-OMe; configuration not given here) displayed a melting point of 196 to 199 °C.

Regarding `N#CCOc1ccc(O)c([N+](=O)[O-])c1`, the melting point was 113 to 114 °C.

Compound `CC(C)c1ccc(C(=O)C2CCc3ccccc3C2)c(C(C)C)c1OS(N)(=O)=O` (configuration not stated) returned a melting point of 137 to 139 °C.

Take `CS(=O)(=O)NCCCC1COCc2nc3c(N)nc4ccccc4c3n21` (configuration not stated): the melting point fell in the range of 249 to 250 °C.

Regarding `Cc1cc(-n2ccnc2)c2cccc(OCc3c(Cl)ccc(S(=O)(=O)N4CCC[C@H]4C(=O)NCCCNC(=O)c4ccc(C=NN)cc4)c3Cl)c2n1`, the melting point was 148 °C.

Regarding `CN1Cc2c(cc3ccc4c(c3c2-c2ccc3c(c2)OCO3)OCO4)C1=O`, the melting point lay in the range of 234 to 236 °C.

Compound `O=C1CC(c2cccc(Cl)c2)c2cc(C(=O)c3ccc(Cl)cc3)ccc2N1` (configuration not stated) returned a melting point of 195 °C.

With `O=C(Nc1cccnn1)N1CCN(c2nccc(-c3cc(F)cc(F)c3)n2)CC1`, the melting point fell in the range of 270 to 271 °C.

Compound `COc1ccc2c(c1C=O)OCO2` showed a melting point of 124 °C.

`CCSCCCCCSCCCCC(=O)O`: the melting point was in the range of 49.5 to 50 °C.

The compound `COc1ccc(C2=NN(CC(=O)c3ccc4ccccc4c3)C(=O)[C@H]3CCCC[C@@H]23)cc1OC` (relative stereo) displayed a melting point of 89 to 90 °C.

In turn, `Cc1cc(CC2SCNC2=O)cc(C(C)(C)C)c1O` (configuration not stated) displayed a melting point of 64 to 68 °C.

For the compound `O=C1CCN(c2ccc(S(=O)(=O)NCc3ccccc3)cc2)CC1`, the melting point lay in the range of 136 to 140 °C.

In turn, `CCNCC1CN(c2c(F)cc3c(=O)c(C(=O)O)cn(-c4ccc(F)cc4F)c3c2F)CCO1` (configuration not stated) had a melting point of 226 to 229 °C.

Regarding `COC(=O)CNC(=O)c1ccc(-c2ccccc2)cc1`, the melting point lay in the range of 127 to 128 °C.

Turning to `CCOC(=O)C(Oc1cccc2c1ccn2C(=O)OCc1ccccc1)C(=O)OCC`, the melting point fell in the range of 77 to 78 °C.

Consider `COC(=O)C(S)CNC(=O)C(=O)NCC(S)C(=O)OC` (configuration not stated), for which the melting point was in the range of 150 to 151 °C.

`CC(=O)Oc1ccccc1C(=O)NC1CCN(CCCOc2ccccc2C#N)CC1`: the melting point is 80 to 82 °C.

As for `COCC(Oc1ccc(Nc2ccc(C(F)(F)F)cc2[N+](=O)[O-])cc1)C(=O)OC` (configuration not stated), the melting point came to 57 °C.

`CCCOc1ccc(C(=O)C=CC(=O)O)cc1OC` showed a melting point of 136 °C.

For the compound `COc1cccc(C23CN(C)CC2CC32OCC(C)(C)CO2)c1` (configuration not stated), the melting point was 132 to 135 °C.

Consider `COC(=O)c1cnc(Cl)c(Br)c1`, for which the melting point was 78 to 79 °C.

By melting point is commonly meant the temperature, or range, at which the solid turns liquid.
